Measured values: the supplement of paper PMC10307832

Assays:
Assay in all cases: relative viability (nuclei count vs DMSO), 5 days (fraction); higher = more cells survive
[1] = compound: C1CC2=C(C1)C=C(C=C2)OC3=NC(=C4C(=N3)N(C=N4)CC5=CC=C(C=C5)C6=CC=CC=C6)N[C@@H](CC7=CC=CC=C7)CO [QS11] + CC1(C)CCC(c2ccc(Cl)cc2)=C(CN2CCN(c3ccc(C(=O)NS(=O)(=O)c4ccc(N[C@H](CCN5CCOCC5)CSc5ccccc5)c(S(=O)(=O)C(F)(F)F)c4)cc3)CC2)C1 [Navitoclax] (partner 0.5 µM)
In short: (§1)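 Relative viability divides the nuclei count in treated wells by that in vehicle wells. Lung cancer cell lines were seeded in 1536-well plates, dosed by pin tool the next day, and fixed and stained after 5 days in one step with final 0.05% Triton X-100, 1% formaldehyde and 1 ug/ml Hoechst. Dosing was a single drug or a fixed anchor-drug dose plus five library-drug doses (not always all listed) in √10 steps, and values are medians of duplicate plates imaged at 4×.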

[2] = compound: CC1=C(C=C(C=C1)NC(=O)C2=CC(=CC=C2)C(C)(C)C#N)NC3=CC4=C(C=C3)N=CN(C4=O)C [AZ628] + CC1(C)CCC(c2ccc(Cl)cc2)=C(CN2CCN(c3ccc(C(=O)NS(=O)(=O)c4ccc(N[C@H](CCN5CCOCC5)CSc5ccccc5)c(S(=O)(=O)C(F)(F)F)c4)cc3)CC2)C1 [Navitoclax] (partner 0.5 µM)
In short: as §1

[3] = compound: CC1=C(C=C(C=C1)NC(=O)C2=CC(=CC=C2)C(C)(C)C#N)NC3=CC4=C(C=C3)N=CN(C4=O)C [AZ628] + CC(=O)c1c(C)c2cnc(Nc3ccc(N4CCNCC4)cn3)nc2n(C2CCCC2)c1=O [Palbociclib] (partner 0.5 µM)
In short: as §1

[4] = compound: C[As](C)SC[C@H](NC(=O)CC[C@H](N)C(=O)O)C(=O)NCC(=O)O [Darinaparsin] + Nc1nc2[nH]cc(CCc3ccc(C(=O)N[C@@H](CCC(=O)O)C(=O)O)cc3)c2c(=O)[nH]1 [Pemetrexed] (partner 0.2 µM)
In short: as §1

Cell Line	relative viability ([1]; first compound 0.08 µM)	relative viability ([1]; first compound 0.253 µM)	relative viability ([1]; first compound 0.8 µM)	relative viability ([1]; first compound 2.53 µM)	relative viability ([1]; first compound 8 µM)	relative viability ([2]; first compound 0.08 µM)	relative viability ([2]; first compound 0.253 µM)	relative viability ([2]; first compound 0.8 µM)	relative viability ([2]; first compound 2.53 µM)	relative viability ([2]; first compound 8 µM)	relative viability ([3]; first compound 0.08 µM)	relative viability ([3]; first compound 0.253 µM)	relative viability ([3]; first compound 0.8 µM)	relative viability ([3]; first compound 2.53 µM)	relative viability ([3]; first compound 8 µM)	relative viability ([4]; first compound 0.08 µM)	relative viability ([4]; first compound 0.8 µM)	relative viability ([4]; first compound 2.53 µM)	relative viability ([4]; first compound 8 µM)
NCI-H1650	1.18	1.12	1.07	1.1	1.2	1.34	1.22	1.38	1.15	0.949	0.471	0.372	0.335	0.302	0.42	0.426	0.369	0.342	0.396
H3255	0.552	0.587	–	0.55	0.704	0.496	0.503	0.558	0.489	0.227	0.284	0.297	0.309	0.326	0.328	0.576	0.587	0.522	0.54
NCI-H23	0.818	0.863	0.872	0.75	0.692	0.878	0.868	0.61	0.783	0.559	0.476	0.551	0.347	0.23	0.265	0.933	0.616	0.643	0.74
NCI-H1755	1.03	0.994	0.531	0.898	0.834	0.998	1	1.05	1.02	0.956	0.449	0.461	0.446	0.435	0.397	0.552	0.389	0.411	0.656
NCI-H1437	1.12	1.22	0.718	0.943	0.936	1.09	1.09	1.19	1.25	1.07	0.317	0.297	0.274	0.425	0.379	0.34	0.371	0.301	0.329
NCI-H460	1.1	1.25	0.882	1.06	0.308	1.2	1.18	1.09	1.09	0.561	0.148	0.168	0.147	0.17	0.123	0.0581	0.0587	0.0655	0.0643
HARA	1.17	1.21	–	1.21	1.35	1.2	1.12	1.13	1.14	0.591	0.216	0.3	0.223	0.275	0.222	0.269	–	0.22	0.294
NCI-H2085	1.18	1.17	1.08	1.29	1.41	1.19	1.12	1.08	1.04	0.861	0.478	0.445	0.496	0.493	0.43	0.881	0.962	0.854	0.961
NCI-H1395	–	1.09	1.31	1.45	1.02	1.2	1.08	1.1	1.05	1.22	0.614	0.612	0.622	0.609	0.631	0.944	0.719	0.795	0.792
RERF-LC-KJ	0.996	1.31	0.98	0.896	0.725	1.04	0.816	0.755	0.861	0.745	1.07	1.09	0.994	1.13	0.843	0.513	0.441	0.448	0.484
HCC-78	0.802	0.797	0.756	0.841	0.818	0.902	0.782	0.85	0.746	0.92	0.478	0.454	0.516	0.53	0.449	0.953	0.884	0.838	0.964
NCI-H2087	1.05	1.02	0.733	0.931	0.785	0.746	0.676	0.64	0.669	0.267	0.194	0.157	0.165	0.149	0.173	0.656	0.671	0.667	0.616
SK-LU-1	0.795	0.871	0.646	0.487	0.479	0.502	0.878	1.06	0.886	0.902	0.284	0.286	0.349	0.314	0.288	1.21	0.942	0.787	1.18
EMC-BAC-2	1.14	1.28	0.896	1.12	0.654	1.26	1.09	1.07	1.06	1.05	0.521	0.55	0.535	0.519	0.554	0.452	0.44	0.53	0.472
A-427	0.992	1.02	–	1.02	1.01	0.875	0.826	0.726	0.671	0.31	0.475	0.446	0.497	0.475	0.427	1.06	0.934	1.1	1.02
NCI-H2170	0.575	0.584	0.572	0.605	0.695	0.654	0.636	0.707	0.748	0.721	0.413	0.349	0.381	0.418	0.424	0.32	0.267	0.389	0.287
COR-L23	1.06	0.922	0.818	0.865	0.761	1.02	1.12	1.2	1.07	0.492	0.327	0.293	0.257	0.268	0.187	0.198	0.209	0.18	0.2
